# Test results from patent US4252806A, “Triazoloquinolones” (Mead Johnson & Company, priority 1979, dated 1981).
# Tests used:
# [1] = Prevention of reserpine ptosis in mice (oral pretreatment); assay type: in vivo; details: Mus musculus, test drug oral (per os) before reserpine 2.0 mg./kg. intravenously
# [2] = Lethal toxicity (ALD50) and first signs of pharmacologic activity (ATD50) in mice; details: mouse, in vivo, oral, groups of 10, given as part of ALD50/ATD50 ratio; for TD50: read-out: ATD50 (dose at which signs of pharmacologic activity are first evidenced)
# Description: In groups of 10 mice treated variously with geometrically increasing doses of test compound of from 125 mg./kg. to 2,000 mg./kg., the lethal toxicity (ALD50) and the dose at which signs of pharmacologic activity are first evidenced (ATD50) can be estimated. […] The ALD50 /ATD50 ratio (mg. per kg. body wt./mg. per kg. body wt.) for the compound of Procedure 4 is 2,000/125-250 and for that of Procedure 6 is >2,000/8-15.7. The ratio for trazodone is 940/2-4. Thus, the present substances have less than one-half the lethal toxicity of trazodone and from less than one-half to one-fiftieth the propensity for producing overt signs of physiological effect (ATD50) on oral administration to mice. More particularly, the present substances exert less of a depressant effect on the central nervous system as reflected by less deficit in motor coordination, less interference with normal motor activity, and less analgetic effect than trazodone. Laboratory test data with respect to these properties are arranged below.
# [3] = Mouse, tail clip (analgetic); assay type: in vivo; details: oral
# Description: ^1 Bianchi, et al., Brit. J. of Pharmacology 9, 280 (1954).
# [4] = Reduction of phenylquinone writhing in mice (analgetic); assay type: in vivo; details: Mus musculus, oral
# Description: Reduction of phenylquinone
# ^2 Hendershot, et al., J. Pharmcol. & Exptl. Ther. 125, 237 (1959).
# [5] = Reduction of spontaneous motor activity in mice; assay type: in vivo; details: oral
# [6] = Rotorod method for motor incordination in mice; assay type: in vivo; details: oral
# Description: Rotorod method for motor
# ^4 Kinnaird, et al., J. Pharmacol. & Exptl.
# Cutting, et al., Archives Int. Pharmacodyn.
# [7] = CNS depression in mice: antagonism of foot shock induced aggression; assay type: in vivo; details: Mus musculus, oral
# Description: Antagonism of foot shock
# ^5 Tedeschi, et al., J. Pharmacol. & Exptl. Ther. 125, 28 (1959).
# [8] = Inhibition of pernicious preening in mice (antipsychotic or analgetic); assay type: in vivo; details: Mus musculus, oral, read-out: ED50, inhibition of pernicious preening (anti psychotic or analgetic)
# Description: Inhibition of pernicious
# psychotic or analgetic)^6
# ^6 Wilfon, et al., Federation Proceedings 19, 21 (1960).
# [9] = Suppression of conditioned avoidance response; assay type: in vivo; details: oral; for suppression of conditioned avoidance response, activity in words: at 100 mg/kg
# Description: |Suppression of conditioned |avoidance response | ^7 Albert, et al., Pharmacologist 4, 152 (1962).
# [10] = clinical use, vs imipramine; cited from earlier work
# [11] = various animal tests, U.S. Pat. No. 3,381,009; cited from earlier work
SMILES,ED50 [1] [mg/kg],LD50 [2] [mg/kg],TD50 [2] [mg/kg],ED50 [3] [mg/kg],ED50 [4] [mg/kg],"AED-0.3, reduction of spontaneous motor activity [5] [mg/kg]","Rotorod method for motor incordination, activity in words ([6]; at 800 (mg./kg.))",ED50 [7] [mg/kg],ED50 [8] [mg/kg],"suppression of conditioned avoidance response, activity in words [9]","tail clip (analgetic), activity in words ([3]; at 200 (mg./kg.))","reduction of spontaneous motor activity, activity in words ([5]; at 20, 40, & 80 (mg./kg.))","TD50 ([6]; mouse, in vivo, read-out: ED50, Rotorod method for motor incordination) [mg/kg]",ED50 [9] [mg/kg],clinical antidepressant effectiveness and side effects [10],pharmacological actions [11]
"O=c1n(CCCN2CCN(c3cccc(Cl)c3)CC2)nc2ccc3ccccc3n12 [Procedure 4, 2-[3-[4-(3-Chlorophenyl)-1-piperazinyl]propyl]-1,2,4-triazolo[4,3-a]quinolin-3(2H)-one]",29,2000,125 to 250,200,40.5,80,inactive,54,24,inactive,–,–,–,–,–,–
Cc1cc2nn(CCCN3CCN(c4cccc(Cl)c4)CC3)c(=O)n2c2ccccc12 [Procedure 6],27,> 2000,8 to 15.7,–,51.8,–,–,36.5,62,inactive,inactive,inactive,–,–,–,–
"O=c1n(CCCN2CCN(c3cccc(Cl)c3)CC2)nc2ccccn12 [trazodone, 2-[3-[4-(3-chlorophenyl)-1-piperazinyl]propyl]-1,2,4-triazolo[4,3-a]pyridin-3(2H)-one, reference compound]",36,940,2 to 4,55.5,21.8,15.3,–,22.2,43,–,–,–,44.4,131,antidepressant equivalent in effectiveness to imipramine but with fewer side effects,"tranquilizing action, hypotensive action, and analgesic action"
